From BindingDB's records for doi:10.1021/jm000541z (Abbott Laboratories, 2001)
pKi: −log10 of the molar value.

Biological target: Alpha-1B adrenergic receptor (Mesocricetus auratus) (UniProt P18841)
Assay: Binding affinity to hamster alpha-1B adrenergic receptor

Chain of Alpha-1B adrenergic receptor (Mesocricetus auratus) (P18841 whole entry, looked up): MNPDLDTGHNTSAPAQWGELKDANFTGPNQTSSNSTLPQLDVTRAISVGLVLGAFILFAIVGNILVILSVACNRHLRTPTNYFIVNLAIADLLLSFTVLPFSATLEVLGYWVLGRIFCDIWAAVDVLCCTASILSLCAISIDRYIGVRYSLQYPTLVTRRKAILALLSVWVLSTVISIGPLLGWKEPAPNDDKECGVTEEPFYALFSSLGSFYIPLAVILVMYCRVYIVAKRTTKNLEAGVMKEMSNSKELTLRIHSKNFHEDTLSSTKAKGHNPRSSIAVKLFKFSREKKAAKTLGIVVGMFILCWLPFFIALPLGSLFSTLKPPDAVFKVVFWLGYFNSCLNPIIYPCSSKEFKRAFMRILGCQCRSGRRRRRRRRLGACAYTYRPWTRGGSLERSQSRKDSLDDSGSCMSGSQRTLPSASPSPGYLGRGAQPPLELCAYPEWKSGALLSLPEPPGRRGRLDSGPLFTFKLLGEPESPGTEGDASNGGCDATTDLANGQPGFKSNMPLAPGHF

pKi | SMILES
8.48 | COc1cc2c(=O)n(CCN3C[C@@H]4CCc5c(OC)cccc5[C@@H]4C3)c(=O)n(C)c2cc1OC [6,7-Dimethoxy-3-[2-(6-methoxy-1,3,3a,4,5,9b-hexahydro-benzo[e]isoindol-2-yl)-ethyl]-1-methyl-1H-quinazoline-2,4-dione]
8.48 | COc1cccc2c1CC[C@H]1CN(CCn3c(=O)[nH]c4cc([N+](=O)[O-])ccc4c3=O)C[C@@H]21 [3-[2-(6-Methoxy-1,3,3a,4,5,9b-hexahydro-benzo[e]isoindol-2-yl)-ethyl]-7-nitro-1H-quinazoline-2,4-dione]
